Experiments:
[1] = system: morphine analgesia-non-effective Wistar rats; assay: Effect of enhancing morphine analgesia, tail-flick latency (Test 2); type: in vivo, rat
[2] = system: morphine analgesia-non-effective Wistar rats; assay: as above; type: in vivo, rat; remark: listed apart in the source
Experimental: Effect of enhancing morphine analgesia was tested.
To Wistar rats (10 week-age, male, body weight 250~300 g) was given intraperitoneally morphine at a dose of 0.5 mg/kg, and these rats receiving the morphine were classified into the group of morphine analgesia-effective rats and the group of morphine analgesia-non-effectiverats according to the classification method described in the "Showa Igakukai Zasshi" Vol. 39, No. 5, pages 537~542 (1979). […] The effect of analgesia was evaluated according to the method of tail-flick latency of rats described in the "Showa Igakukai Zasshi" Vol. 39, No. 5, pages 537~542 (1979). The evaluation of pain threshold of rats according to the tail-flick latency method was made as follows: Radiant heat stimulus was applied to the region of the rat tail which positioned 1 cm away from the tail tip and which had been colored black with a black-dye, and the time of latency involved in the tail flick, namely the period of time lapsing between the time of application of the heat stimulus and the time of the reflective flick response of the tail was measured. The quantity of the heat applied was so controlled that the average time of latency of the tail-flick response appearing in the control group of rats (receiving neither the test compound nor the morphine) was about 2.0 seconds. The tests were accomplished as long as the maximum value for the tail-flick latency was 7.0 seconds or less, as otherwise the skin of the rat tail could be damaged by the application of heat. In other words, if the time for the tail-flick latency was longer than 7.0 seconds, the tests were stopped to prevent the damage of the rat tail. The radiant heat stimulus was repeated 5 times for each test rat at an interval of 15 minutes and the times of latency in the flick response of the tail measured in each test were averaged. In each test, 5 rats were used.
The difference in the time of the tail-flick latency between the test rats (receiving 250 mg/kg of the test compound plus 0.5 mg/kg of morphine) and the control rats (receiving 0.5 mg/kg of morphine alone) was calculated, and the effect for enhancement of morphine analgesia was estimated in term of the value of percentages which were calculated by the following equation: [formula]

enkephalinase = molecular target: T1, enkephalinase (Rattus norvegicus, UniProt P07861); assay: Inhibitory activity against enkephalinase (Test 1); type: biochemical; settings: enkephalinase from corpus striatum of rat brain; substrate methionine-enkephaline; 37° C., 1 hour; pH 7.7
T1 construct: homogenizing corpus striatum of rat brain and by partial purification of the brain homogenate; from tissue; host or cells: rat brain corpus striatum, homogenate partially purified by the method of Gorenstein et al
T1 sequence (P07861 1-750): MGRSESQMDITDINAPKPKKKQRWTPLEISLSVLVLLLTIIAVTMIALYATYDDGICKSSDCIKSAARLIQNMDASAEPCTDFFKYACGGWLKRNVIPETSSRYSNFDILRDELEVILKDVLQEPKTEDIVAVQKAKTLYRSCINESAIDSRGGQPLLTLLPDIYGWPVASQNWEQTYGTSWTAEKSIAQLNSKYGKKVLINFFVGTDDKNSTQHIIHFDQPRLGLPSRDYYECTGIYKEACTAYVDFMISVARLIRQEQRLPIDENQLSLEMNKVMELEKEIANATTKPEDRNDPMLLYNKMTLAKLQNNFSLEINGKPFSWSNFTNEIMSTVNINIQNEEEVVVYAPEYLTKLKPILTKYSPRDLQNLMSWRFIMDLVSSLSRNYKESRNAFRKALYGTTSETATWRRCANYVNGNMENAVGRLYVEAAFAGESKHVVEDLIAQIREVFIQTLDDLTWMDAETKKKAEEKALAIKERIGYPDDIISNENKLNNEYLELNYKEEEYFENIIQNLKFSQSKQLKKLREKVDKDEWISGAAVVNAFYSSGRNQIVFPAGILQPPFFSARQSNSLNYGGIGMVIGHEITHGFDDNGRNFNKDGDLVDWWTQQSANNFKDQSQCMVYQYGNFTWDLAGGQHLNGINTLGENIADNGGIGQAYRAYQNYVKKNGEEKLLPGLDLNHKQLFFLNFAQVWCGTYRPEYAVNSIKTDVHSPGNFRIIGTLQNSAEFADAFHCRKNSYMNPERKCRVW
Experimental: Inhibitory activity against enkephalinase were tested.
A preparation of enkephalinase was made by homogenizing corpus striatum of rat brain and by partial purification of the brain homogenate according to the method of Gorenstein et al (see the "Life Science" Vol. 25, 2065~2070 (1979) Pergamon Press, U.S.A.).
A test compound was dissolved in a mixture of Trishydrochloride buffered solution (pH 7.7) and an aqueous 1% Triton X100 (an active surfectant) to such a concentration that the added quantity of the test compound amounted to one-tenth of the volume of said mixture. To the solution of the test compound so prepared was added the enkephalinase, followed by incubation for five minutes at ambient temperature and further by addition of methionine-enkephaline as the substrate. The admixture so obtained was incubated at 37° C. for 1 hour and then subjected to a high-performance liquid chromatography in such a manner that the Tyr-Gly-GLy (a fragment of the methionine-enkephaline) formed by the enzymatic degradation of methionine-enkephaline was isolated in some fractions of the eluate and the quantity of Tyr-Gly-GLy was determined by an electro-chemically analysing detector. In this way, IC50 value of the test compound, namely the dose of the test compound required for 50% inhibition of the enkephalinase was measured.

mice of ddy-strain = assay: Analgesic activity by the acetic acid-writhing method (Test 3); type: in vivo, mouse; settings: for Number of Writhings (Average value ± standard error): 30 minutes before 0.6% acetic acid i.p., counted during 15 minutes; for Suppression of writhing reactions: compared to the control group
Description: Analgesic activity of test compound was estimated according to the acetic acid-writhing method.
Mice groups each containing 10 mice of ddy-strain (male, 5 weeks-aged, average body weight about 20 grams) were employed as the test animal. A suspension of the test compound, D-Phe-AHPA suspended in an aqueous solution containing 0.5% of gum arabic and 7% of an active surfectant (consisting of the reaction products of hydrogenated castor oil with polyoxyethylene, commercially available under a registered tradename "Nikkol HCO-60", a product of Nihon Nyukazai Co., Ltd., Japan) was subcutaneously injected into each mouse at a dosage of 30, 150 or 250 mg/kg of the test compound. The above-mentioned suspension so subcutaneously injected was containing the test compound at such a concentration that 0.2 ml of said suspension as injected into each mouse provided the dosage of 30 mg/kg, 150 mg/kg or 250 mg/kg of the test compound. 30 Minutes later, […] of an aqueous solution of 0.6% of acetic acid was injected intraperitoneally into the mice. 5 Minutes after the injection of the aqueous acetic acid, estimation was commenced to count the number of the writhing reaction of the treated mice (the motions such as abdominal constrictions and extensions of the treated mice as induced by the injection of acetic acid) which took place during the subsequent 15 minutes (see the Japanese medical book "Iyaku Kaihatsu Koza" Vol. 5 pages 282~286, published from Chijin-Shokan in 1971 and an English medicinal journal "Brit. J. Pharmacol." 32, pages 295~310, 1968). For control, another mice groups received the subcutaneous administration of an aqueous solution containing no test compound but containing 0.5% of gum arabic and 7% of the active surfectant (Nikkol HCO-60). The rate (%) of suppressing the writhing reactions was evaluated as compared to the control group. "Students-t-test" was employed for the statistical analysis of the test results.

Row | Structure (SMILES) | Morphine Analgesia enhancement ([1]; morphine alone 2 mg/kg (comparative)) [%] | Morphine Analgesia enhancement ([1]; morphine alone 3 mg/kg (comparative)) [%] | Morphine Analgesia enhancement ([2]; morphine alone 0.5 mg/kg (comparative)) [%] | Morphine Analgesia enhancement ([2]; 250 mg/kg test compound i.p., 10 minutes later 0.5 mg/kg morphine i.p., versus 0.5 mg/kg morphine alone, tail-flick latency) [%] | IC50 (enkephalinase) [µM] | Number of Writhings (Average value ± standard error) (mice of ddy-strain; 30 mg/kg s.c.) | Suppression of writhing reactions (mice of ddy-strain; 30 mg/kg s.c.) [%] | Number of Writhings (Average value ± standard error) (mice of ddy-strain; 150 mg/kg s.c.) | Suppression of writhing reactions (mice of ddy-strain; 150 mg/kg s.c.) [%] | Number of Writhings (Average value ± standard error) (mice of ddy-strain; 250 mg/kg s.c.) | Suppression of writhing reactions (mice of ddy-strain; 250 mg/kg s.c.) [%] | Dose dependence of suppression of acetic acid-writhing reaction (mice of ddy-strain; 30, 150 or 250 mg/kg s.c., compound alone)
1 | CN1CC[C@]23c4c5ccc(O)c4O[C@H]2[C@@H](O)C=C[C@H]3[C@H]1C5 [Morphine, morphine] | 28.4 | 35.1 | 0 |  |  |  |  |  |  |  |  | 
2 | N[C@H](Cc1ccccc1)C(=O)N[C@H](Cc1ccccc1)[C@H](O)C(=O)O [Compound 10, (2S,3R)-3-N--(R)-phenylalanylamino-2-hydroxy-4-phenylbutanoic acid] |  |  |  | 35.0 | 740 | 48.3 ± 3.7 | 37.4 | 43.9 ± 3.8 | 43.1 | 31.3 ± 8.0 | 59.4 | suppressed the acetic acid-writhing reaction in the dosage-depending manner

Source: patent publication US4474764A, “3-Amino-2-hydroxy-4-phenylbutanoic acid derivatives and pharmaceutical composition containing the same” (Zaidan Hojin Biseibutsu Kagaku Kenkyu Kai, priority 1981, dated 1984)
